Entries after “also recorded” stand apart in the source; their conditions may differ. Each block holds one compound with its values, some of them ahead of it.
What was measured:
GalR2 = target: T1, GalR2 (Homo sapiens, UniProt O43603); assay type: cell-based; conditions: for efficacy via GalR2 compared with GalWtb, in words: GalR2, Table 1 data
T1 construct: expressed in transfected cells; host or cells: HEK293
T1 sequence (O43603 1-387): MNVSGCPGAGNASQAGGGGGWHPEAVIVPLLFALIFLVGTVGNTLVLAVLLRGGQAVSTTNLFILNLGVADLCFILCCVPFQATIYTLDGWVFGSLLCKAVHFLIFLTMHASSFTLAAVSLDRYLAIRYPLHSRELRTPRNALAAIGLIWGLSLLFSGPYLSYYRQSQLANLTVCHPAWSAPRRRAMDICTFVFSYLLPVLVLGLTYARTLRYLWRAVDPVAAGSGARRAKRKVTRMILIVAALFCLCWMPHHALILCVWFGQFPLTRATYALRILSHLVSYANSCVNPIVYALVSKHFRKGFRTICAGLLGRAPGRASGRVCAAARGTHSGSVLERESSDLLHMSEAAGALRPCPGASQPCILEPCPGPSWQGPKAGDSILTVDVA
Procedure: (§1) ND indicates ‘not determined’.
Peptide was dissolved in 0.3% ammonia. […] Different isomers were purified and lyophilized.

[1] = test system: Galanin receptor (GalR1, GalR2); test: Galanin receptor activation assays, overall statements in words; assay type: cell-based; conditions: for preference for stimulating GalR2 (over GalR1), in words: GalR2 versus GalR1; for activity, in words: overall statement on galanin receptor activation
Procedure: (§2) The biological activity of the (lanthi)galanins was determined in CHO-K1 cell lines that express either the GalR1, or GalR2 receptor. Activity measurements were performed using commercial kits from DiscoverX for determining arrestin recruitment (GalR1, GalR2) and inhibition of cAMP synthesis (GalR1). In addition, HEK293 cell lines that express the GalR2 receptor have been used for methods from Molecular Probes to measure calcium efflux (GalR2).
(§3) Peptide was dissolved in 0.3% ammonia. Peptides were incubated o/n at 37° C. for the introduction of the lanthionine via base assisted sulfur extrusion of the disulfide bridged peptide. Different isomers could be isolated by HPLC applying the same method as was used as for the biologically produced peptides. Different isomers were purified and lyophilized. Dry peptides were dissolved in 100 mM phosphate buffer pH=7.6 and peptides were incubated o/n at 50° C. After HPLC purification peptides with a pE formation were selected and used in the different Galanin receptor activation assays.

GalR1 [2] = target: T2, GalR1 (Homo sapiens, UniProt P47211); conditions: FIG. 1
T2 sequence (P47211 1-349): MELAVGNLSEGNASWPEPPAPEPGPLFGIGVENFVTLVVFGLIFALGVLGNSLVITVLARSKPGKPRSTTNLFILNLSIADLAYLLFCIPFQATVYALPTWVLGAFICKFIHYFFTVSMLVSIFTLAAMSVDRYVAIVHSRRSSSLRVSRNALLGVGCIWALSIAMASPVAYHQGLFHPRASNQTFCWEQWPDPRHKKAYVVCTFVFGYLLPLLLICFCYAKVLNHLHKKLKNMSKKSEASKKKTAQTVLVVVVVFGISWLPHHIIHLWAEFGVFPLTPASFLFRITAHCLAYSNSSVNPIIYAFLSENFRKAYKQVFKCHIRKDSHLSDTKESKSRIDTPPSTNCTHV
Procedure: as §2, §1
as §3, with “Different isomers could be isolated by HPLC applying the same method as was used as for the biologically produced peptides.” left out

GalR1 [3] = target: T2, GalR1; test: inhibition of cAMP synthesis in CHO-K1 cells expressing GalR1 (DiscoverX kit); assay type: cell-based; design: host or cells: CHO-K1; conditions: FIG. 3
Procedure: as §2, §1
as §3, with “Different isomers could be isolated by HPLC applying the same method as was used as for the biologically produced peptides.” left out

Structure (SMILES): CC(C)C[C@H](NC(=O)[C@H](CC(C)C)NC(=O)[C@H](Cc1ccc(O)cc1)NC(=O)CNC(=O)[C@H](C)NC(=O)[C@H](C)NC(=O)[C@H](CC(N)=O)NC(=O)[C@@H](NC(=O)[C@H](CC(N)=O)NC(=O)[C@H](Cc1c[nH]c2ccccc12)NC(=O)CN)C(C)C)C(=O)NCC(=O)N[C@@H](C)C(=O)N[C@H]1C(=O)N[C@@H](C)C(=O)N[C@@H](C(C)C)C(=O)N[C@H](C(=O)N[C@@H](CC(N)=O)C(=O)N[C@@H](Cc2c[nH]cn2)C(=O)N[C@@H](CCCNC(=N)N)C(=O)O)CS[C@H]1C [GalM92]
- efficacy via GalR2 compared with GalWtb, in words (GalR2): comparable efficacy via GalR2 like GalWtb

Structure (SMILES): CC(C)C[C@@H]1NC(=O)[C@H](CC(C)C)NC(=O)[C@H](Cc2ccc(O)cc2)NC(=O)C(NC(=O)[C@H](C)NC(=O)[C@H](C)NC(=O)[C@H](CC(N)=O)NC(=O)[C@H](CC(C)C)NC(=O)[C@@H](NC(=O)[C@H](Cc2c[nH]c3ccccc23)NC(=O)[C@@H]2CCC(=O)N2)[C@@H](C)O)CSCC(C(=O)O)NC1=O (single isomer, unassigned) [4179 C, pEWTLNAAlanYLLlan]
- Ratio EC50s relative to Gal-(1-15), GalR2 Ca efflux (GalR2): 248

Structure (SMILES): CC(C)C[C@@H]1NC(=O)[C@H](CC(C)C)NC(=O)[C@H](Cc2ccc(O)cc2)NC(=O)[C@H](NC(=O)[C@H](C)NC(=O)[C@H](C)NC(=O)[C@H](CC(N)=O)NC(=O)[C@H](CC(C)C)NC(=O)[C@H](CC(N)=O)NC(=O)[C@H](Cc2c[nH]c3ccccc23)NC(=O)[C@@H]2CCC(=O)N2)CSC[C@@H](C(=O)O)NC1=O [GalM82]
- activity, in words [1]: low activity

Structure (SMILES): CC(C)C[C@H](NC(=O)[C@H](CC(C)C)NC(=O)[C@H](Cc1ccc(O)cc1)NC(=O)CNC(=O)[C@H](C)NC(=O)[C@H](C)NC(=O)[C@H](CC(N)=O)NC(=O)[C@H](CC(C)C)NC(=O)[C@H](CC(N)=O)NC(=O)[C@H](Cc1c[nH]c2ccccc12)NC(=O)[C@@H]1CCC(=O)N1)C(=O)NCC(=O)N[C@@H](C)C(=O)N[C@H]1C(=O)N[C@@H](C)C(=O)N[C@@H](C(C)C)C(=O)N[C@H](C(=O)N[C@@H](CC(N)=O)C(=O)N[C@@H](Cc2c[nH]cn2)C(=O)N[C@@H](CCCNC(=N)N)C(=O)O)CS[C@H]1C [GalM54]
- β-arrestin recruitment via GalR2, preference in words (GalR2; FIG. 2): preferentially stimulates β-arrestin recruitment via GalR2
- preference for stimulating GalR2 (over GalR1), in words [1]: GalR2-specific; also recorded: preference for stimulating GalR2

Structure (SMILES): CC(C)C[C@H](NC(=O)[C@H](CC(C)C)NC(=O)[C@H](Cc1ccc(O)cc1)NC(=O)CNC(=O)[C@H](C)NC(=O)[C@H](C)NC(=O)[C@H](CC(N)=O)NC(=O)[C@H](CC(N)=O)NC(=O)[C@H](CC(N)=O)NC(=O)[C@H](Cc1c[nH]c2ccccc12)NC(=O)CN)C(=O)NCC(=O)N[C@@H](C)C(=O)N[C@H]1C(=O)N[C@@H](C)C(=O)N[C@@H](C(C)C)C(=O)N[C@H](C(=O)N[C@@H](CC(N)=O)C(=O)N[C@@H](Cc2c[nH]cn2)C(=O)N[C@@H](CCCNC(=N)N)C(=O)O)CS[C@H]1C [GalM94]
- efficacy via GalR2 compared with GalWtb, in words (GalR2): comparable efficacy via GalR2 like GalWtb

Structure (SMILES): CC(C)C[C@H](NC(=O)[C@H](CC(C)C)NC(=O)[C@H](Cc1ccc(O)cc1)NC(=O)CNC(=O)[C@H](C)NC(=O)[C@H](C)NC(=O)[C@H](CC(N)=O)NC(=O)[C@H](CC(C)C)NC(=O)[C@H](CC(N)=O)NC(=O)[C@H](Cc1c[nH]c2ccccc12)NC(=O)[C@@H]1CCC(=O)N1)C(=O)NCC(=O)N1CCC[C@H]1C(=O)N[C@H]1C(=O)N[C@@H](C)C(=O)N[C@@H](C(C)C)C(=O)N[C@H](C(=O)O)CS[C@H]1C [GalM87]
- preference for stimulating GalR2 (over GalR1), in words [1]: preference for stimulating GalR2

Next, values leading:

- preference for stimulating GalR2 (over GalR1), in words [1]: GalR2-specific
Structure (SMILES): CC(C)C[C@H](NC(=O)[C@H](CC(C)C)NC(=O)[C@H](Cc1ccc(O)cc1)NC(=O)CNC(=O)[C@H](C)NC(=O)[C@H](C)NC(=O)[C@H](CC(N)=O)NC(=O)[C@H](CC(C)C)NC(=O)[C@H](CC(N)=O)NC(=O)[C@H](Cc1c[nH]c2ccccc12)NC(=O)[C@@H]1CCC(=O)N1)C(=O)NCC(=O)N[C@@H](C)C(=O)N[C@H]1C(=O)N[C@@H](C)C(=O)N[C@@H](C(C)C)C(=O)N[C@H](C(=O)N[C@@H](CC(N)=O)C(=O)N[C@@H](Cc2c[nH]cn2)C(=O)O)CS[C@H]1C [GalM54tr]

- preference for stimulating GalR2 (over GalR1), in words [1]: preference for stimulating GalR2
Structure (SMILES): CC(C)C[C@H](NC(=O)[C@H](CC(C)C)NC(=O)[C@H](Cc1ccc(O)cc1)NC(=O)CNC(=O)[C@H](C)NC(=O)[C@H](C)NC(=O)[C@H](CC(N)=O)NC(=O)[C@H](CC(C)C)NC(=O)[C@H](CC(N)=O)NC(=O)[C@H](Cc1c[nH]c2ccccc12)NC(=O)[C@@H]1CCC(=O)N1)C(=O)NCC(=O)N1CCC[C@H]1C(=O)N[C@@H](Cc1c[nH]cn1)C(=O)N[C@@H](C)C(=O)N[C@H]1C(=O)NCC(=O)N[C@@H](CC(N)=O)C(=O)N[C@H](C(=O)N[C@@H](CCCNC(=N)N)C(=O)O)CS[C@H]1C [GalM74b]

- preference for stimulating GalR2 (over GalR1), in words [1]: preference for stimulating GalR2
Structure (SMILES): CC(C)C[C@H](NC(=O)[C@H](CC(C)C)NC(=O)[C@H](Cc1ccc(O)cc1)NC(=O)CNC(=O)[C@H](C)NC(=O)[C@H](C)NC(=O)[C@H](CC(N)=O)NC(=O)[C@H](CC(C)C)NC(=O)[C@H](CC(N)=O)NC(=O)[C@H](Cc1c[nH]c2ccccc12)NC(=O)[C@@H]1CCC(=O)N1)C(=O)N[C@@H](C)C(=O)N[C@H]1C(=O)N[C@@H](Cc2c[nH]cn2)C(=O)N[C@@H](C)C(=O)N[C@H](C(=O)NCC(=O)N[C@@H](CC(N)=O)C(=O)N[C@@H](Cc2c[nH]cn2)C(=O)N[C@@H](CCCNC(=N)N)C(=O)O)CS[C@H]1C [GalM50b]

- preference for stimulating GalR2 (over GalR1), in words [1]: preference for stimulating GalR2
Structure (SMILES): CC(C)C[C@H](NC(=O)[C@H](CC(C)C)NC(=O)[C@H](Cc1ccc(O)cc1)NC(=O)CNC(=O)[C@H](C)NC(=O)[C@H](C)NC(=O)[C@H](CC(N)=O)NC(=O)[C@H](CC(C)C)NC(=O)[C@H](CC(N)=O)NC(=O)[C@H](Cc1c[nH]c2ccccc12)NC(=O)[C@@H]1CCC(=O)N1)C(=O)N[C@@H](C)C(=O)N[C@H]1C(=O)N[C@@H](Cc2c[nH]cn2)C(=O)N[C@@H](C)C(=O)N[C@H](C(=O)NCC(=O)O)CS[C@H]1C [GalM89b]

- activity, in words [1]: retained some activity
Structure (SMILES): CC(C)C[C@@H]1NC(=O)[C@H](Cc2ccc(O)cc2)NC(=O)C(NC(=O)[C@H](C)NC(=O)[C@H](C)NC(=O)[C@H](CC(N)=O)NC(=O)[C@H](CC(C)C)NC(=O)[C@H](CC(N)=O)NC(=O)[C@H](Cc2c[nH]c3ccccc23)NC(=O)CN)CSC[C@@H](C(=O)NCC(=O)N2CCC[C@H]2C(=O)N[C@@H](Cc2c[nH]cn2)C(=O)N[C@@H](C)C(=O)N[C@H](C(=O)NCC(=O)N[C@@H](CC(N)=O)C(=O)N[C@@H](Cc2c[nH]cn2)C(=O)N[C@@H](CCCNC(=N)N)C(=O)O)C(C)C)NC(=O)[C@H](CC(C)C)NC1=O (stereo partly drawn) [GalM73]

- β-arrestin recruitment via GalR1, in words (GalR1 [2]): induced β-arrestin recruitment via GalR1
- cAMP production via GalR1, in words (GalR1 [3]): inhibit cAMP production via GalR1
Structure (SMILES): CC(C)C[C@H](NC(=O)[C@H](CC(C)C)NC(=O)[C@H](Cc1ccc(O)cc1)NC(=O)CNC(=O)[C@H](C)NC(=O)[C@H](C)NC(=O)[C@H](CC(N)=O)NC(=O)[C@H](CC(C)C)NC(=O)[C@H](CC(N)=O)NC(=O)[C@H](Cc1c[nH]c2ccccc12)NC(=O)CN)C(=O)NCC(=O)N[C@@H](C)C(=O)N[C@H]1C(=O)N[C@@H](C)C(=O)N[C@@H](C(C)C)C(=O)N[C@H](C(=O)N[C@@H](CC(N)=O)C(=O)N[C@@H](Cc2c[nH]cn2)C(=O)N[C@@H](CCCNC(=N)N)C(=O)O)CS[C@H]1C [GalM51]

- cAMP production via GalR1, in words (GalR1 [3]): inhibit cAMP production via GalR1
Structure (SMILES): CC(C)C[C@H](NC(=O)[C@H](CC(C)C)NC(=O)[C@H](Cc1ccc(O)cc1)NC(=O)CNC(=O)[C@H](C)NC(=O)[C@H](C)NC(=O)[C@H](CC(N)=O)NC(=O)[C@H](CC(C)C)NC(=O)[C@H](CC(N)=O)NC(=O)[C@H](Cc1c[nH]c2ccccc12)NC(=O)CN)C(=O)NCC(=O)N1CCC[C@H]1C(=O)N[C@@H](Cc1c[nH]cn1)C(=O)N[C@H]1C(=O)N[C@@H](C(C)C)C(=O)NCC(=O)N[C@H](C(=O)N[C@@H](Cc2c[nH]cn2)C(=O)N[C@@H](CCCNC(=N)N)C(=O)O)CS[C@H]1C [GalM52]

From patent US10501514B2, “Cyclic galanin-analogs and uses thereof” (LanthioPep B.V., priority 2015, dated 2019)
